Data published in patent US6506797B1, “Substituted phenylpropionic acid derivatives as agonists to human peroxisome proliferator-activated receptor (PPAR) α” (Kyorin Pharmaceutical Co., Ltd., priority 1999, dated 2003).

Assays:
[1] = molecular target: T1, human peroxisome proliferator-activated receptor (PPAR)α (Homo sapiens, UniProt Q07869); assay: Binding assay to human PPARα (His-hPPARα-LBD, [3H] ligand); set-up: expressed in transfected cells
T1 sequence (Q07869 239-466 limits assumed): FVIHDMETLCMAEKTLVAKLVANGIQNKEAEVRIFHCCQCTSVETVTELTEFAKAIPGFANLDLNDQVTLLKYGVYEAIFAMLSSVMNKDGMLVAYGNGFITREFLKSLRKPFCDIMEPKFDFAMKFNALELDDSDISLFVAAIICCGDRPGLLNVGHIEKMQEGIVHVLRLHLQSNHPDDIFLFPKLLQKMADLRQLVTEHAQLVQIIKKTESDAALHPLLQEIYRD
Method: Binding assay to human peroxisome proliferator-activated receptor (PPAR)α
A plasmid that eXpresses protein of human PPARα-ligand binding domain attached with histidine tag (His-hPPARα-LBD) was cultured by infecting to Escherichia coli (JM-109) and aimed protein was recovered and purified. [^3H]-5-[(2,4-dioxothiazolidine-5-yl)methyl]-2-methoxy-N-[[4-(trifluoromethyl)phenyl]methyl]benzamide (Amasham), testing compound and (8S)-HETE being control compound were incubated for 45 minutes at room temperature at various concentrations together with His-hPPARα-LBD protein in 10 mmol/l Tris hydrochloride buffer (pH 7.4) containing 50 mmol/l potassium chloride and 10 mmol/l dithiothreitol. After the reaction, amount of [^3H]-5-[(2,4-dioxothiazolidine-5-yl)methyl]-2-methoxy-N-[[4-(trifluoromethyl)phenyl]methyl]benzamide was determined by a liquid scintillation counter.

[2] = molecular target: T1, human peroxisome proliferator-activated receptor (PPAR)α; assay: Transactivation assay for human PPARα (CHO cells, luciferase reporter); type: cell-based; set-up: expressed in transfected cells; host or cells: CHO cells
From the text: Transactivation assay for human peroxisome proliferator-activated receptor (PPAR)α
To CHO cells cultured in a Dulbecco-modified Eagle's medium containing 10% delipidated fetal calf serum (FCS/DMEM), receptor plasmid that eXpresses fused protein of DNA-binding domain being transcription factor of yeast with ligand-binding domain of human type PPARα (Biochemistry, 1993, 32, 5598) its reporter plasmid (STRATAGENE Corp.), and luciferase plasmid of Renilla (Promega Corp.) as an internal standard were cotransfected with lipofectamine in the serum-free state. Thereafter, testing compound and (8S)-HETE being control compound were added to 10% FCS/DMEM and both luciferase activities were measured after 24 hours, which were corrected with internal standard.
Test of transcription activation on human peroxisome proliferator-activated receptor (PPAR)α
The test of transcription activation on human peroxisome proliferator-activated receptor (PPAR)α shown in Test example 1 was performed to obtain results shown in Table 19.

SD strain male rats = assay: Test on lipid-lowering action in fructose-loaded-diet rats; type: in vivo; conditions: versus vehicle control
Method: Test on Lipid-lowering Action
After SD strain male rats (Nippon Charles Liver) were bred from 8-(weeks old) with feed (Nippon Clear), test was started from 11-(weeks old). After (fasting) for 2 days, testing compound and Bezafibrate (30 mg/kg), being control compound, suspended into 0.5% solution of arabic gum were administered orally once a day for continuous 4 days. For the feed during administration period, AIN-93M modified fructose-loaded diet (Oriental Yeast) was used. After administration for 4 days, blood was collected from (trial) vein and the blood levels of triglyceride, total cholesterol, and free fatty acid were determined by enzymatic method.
The lowering rate of triglyceride in blood, overall cholesterol and free fatty acid was calculated, respectively, by determining the proportion of a figure obtained by subtracting average level of triglyceride in blood (or, average level of (total) cholesterol or level of free fatty acid) of dosage group from average level of triglyceride in blood (or, average level of (total) cholesterol or level of free fatty acid) of vehicle control group to average level of triglyceride in blood (or, average level of overall cholesterol or level of free fatty acid) of vehicle control group.

[3] = 30 mg/kg orally once a day for 4 days
[4] = 10 mg/kg orally once a day for 4 days
[5] = Table 19 (Test example 4), method of Test example 1, read-out: Transcriptional activity EC50

Row | SMILES | melting point | EC50 [1] | EC50 [2] | other results
1 | COc1ccc(CC(C)(C)C(=O)O)cc1C(=O)NCc1ccc(C(F)(F)F)cc1 | 151 to 152 °C | – | – | –
2 | CCCCC/C=C\C/C=C\C=C\[C@@H](O)C/C=C\CCCC(=O)O [(8S) HETE, (8S)-HETE, reference compound] | – | – | – | EC50 ([1]; His-hPPARα-LBD, 45 minutes at room temperature, pH 7.4, read-out: Binding activity EC50): 170 nM; EC50 ([2]; Table 17, CHO cells, human PPARα LBD fusion, luciferase after 24 hours, read-out: Transcriptional activity EC50): 1300 nM
3 | CC(C)(Oc1ccc(CCNC(=O)c2ccc(Cl)cc2)cc1)C(=O)O [Bezafibrate, reference compound] | – | – | – | Lowering rate (%) Free fatty acid (SD strain male rats; [3]): 37%; Lowering rate (%) Total cholesterol (SD strain male rats; [3]): 49%; Lowering rate (%) Triglyceride in blood (SD strain male rats; [3]): 64%
4 | COc1ccc(CC(OC)C(=O)O)cc1C(=O)NCc1ccc(C(F)(F)F)cc1 (stereo not drawn) [Example 24] | 161 to 163 °C | 560 nM | 180 nM | –
5 | COc1ccc(CC(C)C(=O)O)cc1C(=O)NCc1ccc(C(F)(F)F)cc1 (stereo not drawn) [Example 30] | 155 to 156 °C | 840 nM | 200 nM | –
6 | CC[C@@H](Cc1ccc(OC)c(C(=O)NCc2ccc(Oc3ccc(F)cc3)cc2)c1)C(=O)O [Example 174, (S)-(+)-2-ethyl-3-[4-methoxy-3-[N-[(4-fluorophenoxyphenyl)methyl]carbamoyl]phenyl]propanoic acid] | – | – | – | EC50 [2, 5]: 24 nM
7 | CCC[C@@H](Cc1ccc(OC)c(C(=O)NCc2ccc(Oc3ccc(F)cc3)cc2)c1)C(=O)O [Example 179] | 126 to 127 °C | – | – | EC50 [2, 5]: 9.2 nM

Continued, in another order:

Row | melting point | EC50 [1] | EC50 [2] | SMILES | other results
8 | 128 to 130 °C | – | – | CC[C@@H](Cc1ccc(OC)c(C(=O)NCc2ccc(C(F)(F)F)cc2)c1)C(=O)O | –
9 | 128 to 130 °C | – | – | CCC(Cc1ccc(OC)c(C(=O)NCc2ccc(C(F)(F)F)cc2)c1)C(=O)O (stereo not drawn) [46] | –
10 | 144.5 to 146.5 °C | 190 nM | 11.5 nM | CCC(Cc1ccc(OC)c(C(=O)NCc2ccc(C(F)(F)F)cc2)c1)C(=O)O (stereo not drawn) [Example 20, 2-Ethyl-3-[4-methoxy-3-[N-[[4-(trifluoromethyl)phenyl]-methyl]carbamoyl]phenyl]propanoic acid] | Lowering rate (%) Free fatty acid (SD strain male rats; [4]): 77%; Lowering rate (%) Total cholesterol (SD strain male rats; [4]): 25%; Lowering rate (%) Triglyceride in blood (SD strain male rats; [4]): 53%; Lowering rate (%) Free fatty acid (SD strain male rats; [3]): 53%; Lowering rate (%) Total cholesterol (SD strain male rats; [3]): 55%; Lowering rate (%) Triglyceride in blood (SD strain male rats; [3]): 56%
11 | 158.5 to 159.5 °C | 430 nM | 110 nM | CCC(Cc1ccc(OC)c(C(=O)NCc2ccc(-c3ccccc3)cc2)c1)C(=O)O (stereo not drawn) [Example 22] | –
12 | – | 740 nM | 24 nM | CCC(Cc1ccc(OC)c(C(=O)NCc2ccc(Oc3ccccc3)cc2)c1)C(=O)O (stereo not drawn) [Example 23] | –
13 | 85 to 86 °C | – | – | CCC[C@@H](Cc1ccc(OC)c(C(=O)NCc2ccc(Oc3ccccc3)cc2)c1)C(=O)O [Example 178] | EC50 [2, 5]: 94 nM
